Results taken from patent publication US20240209053A1 (Protagonist Therapeutics, Inc., priority 2021, published 2024).
Numbered stars: 1 amine (or outer) side, 2 acyl side, 3 side chain; on linkers, the order of the positions; unused ones are H or OH. Bridge positions count the residues as written; N and C are the ends. Square brackets hold non-standard residues; d marks the D form. Side chains are listed from the residue outwards. Peptide text beside a SMILES is read from it. * marks the point of attachment. Dip = N[C@H](C(=O)O)C(c1ccccc1)c1ccccc1; Hag = O=C([C@H](CCC=[*:3])N[*:1])[*:2]; Palmitoyl = CCCCCCCCCCCCCCCC(=O)*; tBuAla = CC(C)(C)C[C@H](N)C(=O)O; β3hF = N[C@H](CC(=O)O)Cc1ccccc1; Isovaleryl = CC(C)CC(=O)*; Ahx = NCCCCCC(=O)O

Columns and labels:
[1] = target: T1, human ferroportin (SLC40A1) (Homo sapiens, UniProt Q9NP59); assay: FPN activity assay: internalization/degradation of ferroportin-GFP in stably transfected HEK293 cells (decrease in GFP fluorescence); type: cell-based; details: compound incubated at least 18 hours
T1 sequence (Q9NP59 1-571): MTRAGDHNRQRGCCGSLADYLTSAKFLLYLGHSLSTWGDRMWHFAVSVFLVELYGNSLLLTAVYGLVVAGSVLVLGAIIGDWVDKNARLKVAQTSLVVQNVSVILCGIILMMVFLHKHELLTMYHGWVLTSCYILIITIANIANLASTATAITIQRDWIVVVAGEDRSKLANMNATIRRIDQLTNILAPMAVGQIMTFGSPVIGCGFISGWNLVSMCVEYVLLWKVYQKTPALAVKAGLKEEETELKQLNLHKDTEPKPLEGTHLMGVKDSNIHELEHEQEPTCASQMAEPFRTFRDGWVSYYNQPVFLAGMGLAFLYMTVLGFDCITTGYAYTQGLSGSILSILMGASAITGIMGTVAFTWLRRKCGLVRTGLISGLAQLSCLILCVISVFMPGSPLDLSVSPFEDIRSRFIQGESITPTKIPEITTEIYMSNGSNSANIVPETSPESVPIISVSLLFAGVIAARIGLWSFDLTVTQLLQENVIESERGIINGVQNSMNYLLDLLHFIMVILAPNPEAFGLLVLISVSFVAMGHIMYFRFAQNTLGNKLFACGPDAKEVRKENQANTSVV
Summary of the method: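 HEK293 cells stably expressing human ferroportin C-terminally fused to GFP were exposed to peptides for at least 18 h, at most 24 h. Internalization/degradation read as loss of GFP fluorescence; EC50 derived. Retro-inverse mini-hepcidin peptides used as control standards.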

[2] = target: T2, ferroportin (Homo sapiens, UniProt Q9NP59); assay: T47D cell-based ferroportin internalization assay in presence of 0.5% mouse serum albumin (MSA); details: T47D cells
T2 sequence (Q9NP59 1-571): T1 sequence (Q9NP59 1-571)
Summary of the method: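 T47D cells exposed 1 hr to peptide series (10 points from ~5 μM) premixed 30 min at room temperature with 0.5% mouse serum albumin, then 200 nM AF647-labelled ferroportin-binding peptide for 2 hr. Flow cytometry MFI of live singlets; IC50 by 4-parameter fit.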

[3] = target: human ferroportin (SLC40A1) fused in frame with GFP, stably expressed on HEK293 cells (human) (UniProt Q9NP59); assay: cell-based or functional assay

Row | IC50 [1] | IC50 [2] | Potency EC50 [3] | Potency EC50 (nM) [3] | Molecule
1 | 10 to 100 nM | 1 to 10 nM | – | – | CCCCCCCCCCCCCCCC(=O)NCCCCCC(=O)NCCCC[C@H](NC(=O)C[C@H](Cc1ccccc1)NC(=O)[C@@H]1CCC=CCC[C@H](NC(=O)CC(C)C)C(=O)N[C@@H]([C@@H](C)O)C(=O)N[C@@H](Cc2c[nH]cn2)C(=O)N[C@@H](C(c2ccccc2)c2ccccc2)C(=O)N2CCC[C@H]2C(=O)N[C@@H](CC(C)(C)C)C(=O)N[C@@H]([C@@H](C)CC)C(=O)N1)C(=O)N[C@H](CCCCN)C(N)=O [Compd 62] (Isovaleryl-[Hag]TH[Dip]P[tBuAla]I[Hag][β3hF]K([Ahx-Palmitoyl])[dK]-NH2; staple 1-8)
2 | 1 to 10 nM | 1 to 10 nM | – | – | CCCCCCCCCCCCCCCC(=O)NCCCCCC(=O)NCCCC[C@H](NC(=O)C[C@H](Cc1ccccc1)NC(=O)[C@@H]1CCC=CCC[C@H](NC(=O)CC(C)C)C(=O)N[C@@H]([C@@H](C)O)C(=O)N[C@@H](Cc2c[nH]cn2)C(=O)N[C@@H](C(c2ccccc2)c2ccccc2)C(=O)N2CCC[C@H]2C(=O)N[C@@H](C)C(=O)N[C@@H](CC(C)(C)C)C(=O)N1)C(=O)N[C@H](CCCCN)C(N)=O [Compd 63] (Isovaleryl-[Hag]TH[Dip]PA[tBuAla][Hag][β3hF]K([Ahx-Palmitoyl])[dK]-NH2; staple 1-8)
3 | 10 to 100 nM | 10 to 100 nM | – | – | CCCCCCCCCCCCCCCC(=O)NCCCCCC(=O)NCCCC[C@H](NC(=O)[C@H](CC(C)(C)C)NC(=O)[C@@H]1CCC=CCC[C@H](NC(=O)CC(C)C)C(=O)N[C@@H]([C@@H](C)O)C(=O)N[C@@H](Cc2c[nH]cn2)C(=O)N[C@@H](C(c2ccccc2)c2ccccc2)C(=O)N2CCC[C@H]2C(=O)N[C@@H](C)C(=O)N[C@@H]([C@@H](C)CC)C(=O)N1)C(=O)N[C@H](CCCCN)C(N)=O [Compd 64] (Isovaleryl-[Hag]TH[Dip]PAI[Hag][tBuAla]K([Ahx-Palmitoyl])[dK]-NH2; staple 1-8)
4 | 10 to 100 nM | 1 to 10 nM | – | – | CCCCCCCCCCCCCCCC(=O)NCCCCCC(=O)NCCCC[C@H](NC(=O)C[C@H](Cc1ccccc1)NC(=O)[C@@H]1CCC=CCC[C@H](NC(=O)CC(C)C)C(=O)N[C@@H]([C@@H](C)O)C(=O)N[C@@H](Cc2c[nH]cn2)C(=O)N[C@@H](C(c2ccccc2)c2ccccc2)C(=O)N2CCC[C@H]2C(=O)N[C@@H](C)C(=O)N[C@@H]([C@@H](C)CC)C(=O)N1)C(=O)N[C@@H](CC(C)(C)C)C(N)=O [Compd 65]
5 | 1 to 10 nM | 10 to 100 nM | – | – | CCCCCCCCCCCCCCCC(=O)NCCCCCC(=O)NCCCC[C@H](NC(=O)C[C@H](Cc1ccccc1)NC(=O)[C@@H]1CCCC=CCC[C@@H](NC(=O)CC(C)C)C(=O)N[C@@H]([C@@H](C)O)C(=O)N[C@@H](Cc2c[nH]cn2)C(=O)N[C@@H](C(c2ccccc2)c2ccccc2)C(=O)N2CCC[C@H]2C(=O)N[C@@H](C)C(=O)N[C@@H]([C@@H](C)CC)C(=O)N1)C(=O)N[C@H](CCCCN)C(N)=O [Compd 67]
6 | 10 to 100 nM | 100 to 500 nM | – | – | CCCCCCCCCCCCCCCC(=O)NCCCCCC(=O)NCCCC[C@H](NC(=O)C[C@H](Cc1ccccc1)NC(=O)[C@@H]1CCC=CCC[C@@H](NC(=O)CC(C)C)C(=O)N[C@@H]([C@@H](C)O)C(=O)N[C@@H](Cc2c[nH]cn2)C(=O)N[C@@H](C(c2ccccc2)c2ccccc2)C(=O)N2CCC[C@H]2C(=O)N[C@@H](C)C(=O)N[C@@H]([C@@H](C)CC)C(=O)N1)C(=O)N[C@H](CCCCN)C(N)=O [Compd 68]
7 | 1 to 10 nM | > 500 nM | – | – | CCCCCCCCCCCCCCCC(=O)NCCCCCC(=O)NCCCC[C@H](NC(=O)C[C@H](Cc1ccccc1)NC(=O)[C@@H]1CCC=CCCC[C@@H](NC(=O)CC(C)C)C(=O)N[C@@H]([C@@H](C)O)C(=O)N[C@@H](Cc2c[nH]cn2)C(=O)N[C@@H](C(c2ccccc2)c2ccccc2)C(=O)N2CCC[C@H]2C(=O)N[C@@H](C)C(=O)N[C@@H]([C@@H](C)CC)C(=O)N1)C(=O)N[C@H](CCCCN)C(N)=O [Compd 69]
8 | 10 to 100 nM | 1 to 10 nM | – | – | CCCCCCCCCCCCCCCC(=O)NCCCCCC(=O)NCCCC[C@H](NC(=O)C[C@H](Cc1ccccc1)NC(=O)[C@@H]1CCCC=CCCC[C@@H](NC(=O)CC(C)C)C(=O)N[C@@H]([C@@H](C)O)C(=O)N[C@@H](Cc2c[nH]cn2)C(=O)N[C@@H](C(c2ccccc2)c2ccccc2)C(=O)N2CCC[C@H]2C(=O)N[C@@H](C)C(=O)N[C@@H]([C@@H](C)CC)C(=O)N1)C(=O)N[C@H](CCCCN)C(N)=O [Compd 70]
9 | 100 to 500 nM | 100 to 500 nM | – | – | CCCCCCCCCCCCCCCC(=O)NCCCCCC(=O)NCCCC[C@H](NC(=O)C[C@H](Cc1ccccc1)NC(=O)[C@H]1CCCC=CCC[C@@H](NC(=O)CC(C)C)C(=O)N[C@@H]([C@@H](C)O)C(=O)N[C@@H](Cc2c[nH]cn2)C(=O)N[C@@H](C(c2ccccc2)c2ccccc2)C(=O)N2CCC[C@H]2C(=O)N[C@@H](C)C(=O)N[C@@H]([C@@H](C)CC)C(=O)N1)C(=O)N[C@H](CCCCN)C(N)=O [Compd 71]
10 | 10 to 100 nM | 100 to 500 nM | – | – | CCCCCCCCCCCCCCCC(=O)NCCCCCC(=O)NCCCC[C@H](NC(=O)C[C@H](Cc1ccccc1)NC(=O)[C@H]1CCC=CCC[C@@H](NC(=O)CC(C)C)C(=O)N[C@@H]([C@@H](C)O)C(=O)N[C@@H](Cc2c[nH]cn2)C(=O)N[C@@H](C(c2ccccc2)c2ccccc2)C(=O)N2CCC[C@H]2C(=O)N[C@@H](C)C(=O)N[C@@H]([C@@H](C)CC)C(=O)N1)C(=O)N[C@H](CCCCN)C(N)=O [Compd 72]
11 | 100 to 500 nM | > 500 nM | – | – | CCCCCCCCCCCCCCCC(=O)NCCCCCC(=O)NCCCC[C@H](NC(=O)C[C@H](Cc1ccccc1)NC(=O)[C@H]1CCCC=CCCC[C@@H](NC(=O)CC(C)C)C(=O)N[C@@H]([C@@H](C)O)C(=O)N[C@@H](Cc2c[nH]cn2)C(=O)N[C@@H](C(c2ccccc2)c2ccccc2)C(=O)N2CCC[C@H]2C(=O)N[C@@H](C)C(=O)N[C@@H]([C@@H](C)CC)C(=O)N1)C(=O)N[C@H](CCCCN)C(N)=O [Compd 73]
12 | 100 to 500 nM | > 500 nM | – | – | CCCCCCCCCCCCCCCC(=O)NCCCCCC(=O)NCCCC[C@H](NC(=O)C[C@H](Cc1ccccc1)NC(=O)[C@H]1CCC=CCCC[C@@H](NC(=O)CC(C)C)C(=O)N[C@@H]([C@@H](C)O)C(=O)N[C@@H](Cc2c[nH]cn2)C(=O)N[C@@H](C(c2ccccc2)c2ccccc2)C(=O)N2CCC[C@H]2C(=O)N[C@@H](C)C(=O)N[C@@H]([C@@H](C)CC)C(=O)N1)C(=O)N[C@H](CCCCN)C(N)=O [Compd 74]
13 | 10 to 100 nM | 10 to 100 nM | – | – | CCCCCCCCCCCCCCCC(=O)NCCCCCC(=O)NCCCC[C@H](NC(=O)C[C@H](Cc1ccccc1)NC(=O)[C@H]1CCCC=CCC[C@H](NC(=O)CC(C)C)C(=O)N[C@@H]([C@@H](C)O)C(=O)N[C@@H](Cc2c[nH]cn2)C(=O)N[C@@H](C(c2ccccc2)c2ccccc2)C(=O)N2CCC[C@H]2C(=O)N[C@@H](C)C(=O)N[C@@H]([C@@H](C)CC)C(=O)N1)C(=O)N[C@H](CCCCN)C(N)=O [Compd 75]
14 | 10 to 100 nM | 10 to 100 nM | – | – | CCCCCCCCCCCCCCCC(=O)NCCCCCC(=O)NCCCC[C@H](NC(=O)C[C@H](Cc1ccccc1)NC(=O)[C@H]1CCC=CCC[C@H](NC(=O)CC(C)C)C(=O)N[C@@H]([C@@H](C)O)C(=O)N[C@@H](Cc2c[nH]cn2)C(=O)N[C@@H](C(c2ccccc2)c2ccccc2)C(=O)N2CCC[C@H]2C(=O)N[C@@H](C)C(=O)N[C@@H]([C@@H](C)CC)C(=O)N1)C(=O)N[C@H](CCCCN)C(N)=O [Compd 76]
15 | 1 to 10 nM | 1 to 10 nM | – | – | CCCCCCCCCCCCCCCC(=O)NCCCCCC(=O)NCCCC[C@H](NC(=O)C[C@H](Cc1ccccc1)NC(=O)[C@H]1CCCC=CCCC[C@H](NC(=O)CC(C)C)C(=O)N[C@@H]([C@@H](C)O)C(=O)N[C@@H](Cc2c[nH]cn2)C(=O)N[C@@H](C(c2ccccc2)c2ccccc2)C(=O)N2CCC[C@H]2C(=O)N[C@@H](C)C(=O)N[C@@H]([C@@H](C)CC)C(=O)N1)C(=O)N[C@H](CCCCN)C(N)=O [Compd 77]
16 | 10 to 100 nM | 100 to 500 nM | – | – | CCCCCCCCCCCCCCCC(=O)NCCCCCC(=O)NCCCC[C@H](NC(=O)C[C@H](Cc1ccccc1)NC(=O)[C@H]1CCC=CCCC[C@H](NC(=O)CC(C)C)C(=O)N[C@@H]([C@@H](C)O)C(=O)N[C@@H](Cc2c[nH]cn2)C(=O)N[C@@H](C(c2ccccc2)c2ccccc2)C(=O)N2CCC[C@H]2C(=O)N[C@@H](C)C(=O)N[C@@H]([C@@H](C)CC)C(=O)N1)C(=O)N[C@H](CCCCN)C(N)=O [Compd 78]
17 | 1 to 10 nM | 10 to 100 nM | – | – | CCCCCCCCCCCCCCCC(=O)NCCCCCC(=O)NCCCC[C@H](NC(=O)C[C@H](Cc1ccccc1)NC(=O)[C@@H]1CCC=CCC[C@H](NC(=O)CC(C)C)C(=O)N[C@@H]([C@@H](C)O)C(=O)N[C@@H](Cc2c[nH]cn2)C(=O)N[C@@H](C(c2ccccc2)c2ccccc2)C(=O)N2CCC[C@H]2C(=O)N[C@@H](C)C(=O)N[C@@H]([C@@H](C)CC)C(=O)N1)C(=O)N[C@H](CCCCN)C(N)=O [Peptide ID #16, Isovaleric Acid-[Ala(2)]-T-H-[Dpa]-P-A-I-[Ala(2)]-[bhPhe]-[Lys(Ahx_Palm)]-[(D)Lys]-NH2]
18 | – | – | 34 nM | – | Hepcidin (ligand)
19 | – | – | 712 nM | – | Mini-Hepcidin 1-9 (peptide)
20 | – | – | – | > 10000 nM | RI-Mini Hepcidin (peptide)
